The values below come from PubChem BioAssay AID1996.

Each structure is given as a SMILES string. Values after ≈ are worked out from the molar mass of the structure shown. Bounds are passed on as bounds.

The conditions of the data set: buffer; pH 7.4; 200.0 µM.
With `Cc1cc(NC(=O)COc2ccccc2C(N)=O)no1`, the kinetic solubility (as a rule, the concentration staying in solution when a stock, usually in DMSO, is diluted into the medium) turned out to be 19.7 µg/mL (≈ 71.6 µM).

In turn, `Br.CNc1nc2ccccc2n1CC(=O)c1ccccc1` had a kinetic solubility above 51.9 µg/mL.

In turn, `Nc1nc2nonc2nc1N` showed a solubility (kinetic) above 22.8 µg/mL.

`Cc1cc(=O)oc2cc(OCC(=O)NC3CCCCC3)c(Cl)cc12` had a solubility (kinetic) of 4.6 µg/mL (≈ 13.1 µM).

On to `COc1cc2c(cc1OC)C(COc1ccc(C(C)C)cc1)NCC2` (configuration not stated), for which the solubility (kinetic) was determined as 35.1 µg/mL (≈ 103 µM).

On to `N#CCOC(=O)C1c2ccccc2Oc2ccccc21`, for which the kinetic solubility came to 35.2 µg/mL (≈ 133 µM).

Molecule `COc1ccc(CCNC(=O)c2cc(=O)n(C)c(=O)n2C)cc1OC` showed a solubility (kinetic) of 48.7 µg/mL (≈ 140 µM).

`Cc1cccc(Cc2c(C)[nH]c(=O)c(C#N)c2C)c1` displayed a solubility (kinetic) of 5.5 µg/mL (≈ 21.8 µM).

Turning to `CC(=O)Nc1ccc(NC(=S)NC(=O)C2CCCC2)cc1`, the solubility (kinetic) was above 45.8 µg/mL.

`Cc1ccc(NC(=O)COC(=O)C2CC2(Cl)Cl)cc1C` (configuration not stated) showed a solubility (kinetic) of 47.1 µg/mL (≈ 149 µM).

`O=Cc1ccc(C(=O)OCC(=O)NCc2ccco2)cc1` had a kinetic solubility above 43.1 µg/mL.

As to `COc1ccc(C)cc1NC(=O)COC(=O)C1COc2ccccc2O1` (configuration not stated), the solubility (kinetic) is above 53.6 µg/mL.

`O=S(=O)(CCc1ccncc1)Cc1ccc2c3c(cccc13)CC2` had a kinetic solubility of 11.8 µg/mL (≈ 35 µM).

Take `Cn1c(O)c(/C=C2/C=CC=N2)c(=O)[nH]c1=O`: the kinetic solubility is above 32.9 µg/mL.

With `Cc1cc(NC(=O)c2ccc(COc3ccccc3Cl)o2)no1`, the solubility (kinetic) is below 0.4 µg/mL.

Consider `CCc1ccccc1NC(=O)CN(C1CCCCC1)S(C)(=O)=O`, for which the solubility (kinetic) is above 50.8 µg/mL.

Turning to `Cn1c2c(c3cc([N+](=O)[O-])ccc31)CCCC2`, the solubility (kinetic) is below 0.2 µg/mL.

In the case of `Cc1ccc(NC(=S)N2CCC(NC(=O)c3ccc(C)cc3)CC2)cc1`, the kinetic solubility was 2.2 µg/mL (≈ 5.99 µM).

Molecule `Cc1c(Cl)ccc2c(C(N)=O)cc(-c3ccccn3)nc12` showed a solubility (kinetic) of 0.2 µg/mL (≈ 0.672 µM).

`O=C(COC(=O)c1cccnc1Cl)NCc1ccco1`: the solubility (kinetic) was above 44.2 µg/mL.

Take `Cc1ccc(C(=O)O/N=C(\N)c2ccccn2)c(C)c1`: the kinetic solubility was above 40.4 µg/mL.

Regarding `COc1cccc(/C=C/C(=O)OCC(=O)NC2CCCCCCC2)c1`, the kinetic solubility was 6.7 µg/mL (≈ 19.4 µM).

Regarding `COC(=O)N1c2ccccc2C=Cc2ccccc21`, the kinetic solubility was above 37.7 µg/mL.

`O=C(NC1CCCCC1)c1cc(-c2cccs2)on1` returned a solubility (kinetic) of 0.9 µg/mL (≈ 3.26 µM).

In turn, `COc1cccc(/C=N/c2nc3ccccc3n2C)c1O` registered a kinetic solubility of 23.1 µg/mL (≈ 82.1 µM).

`C=CCn1c(SCC(=O)C23CC4CC(CC(C4)C2)C3)nc(O)cc1=O` had a kinetic solubility above 54.1 µg/mL.

`Nc1c([N+](=O)[O-])c(=O)oc2ccccc12` yielded a solubility (kinetic) above 30.9 µg/mL.

In turn, `O=C(CSc1cccc[n+]1[O-])NCC1CCCCC1` displayed a kinetic solubility above 42.1 µg/mL.

On to `COc1cccc(NC(=O)c2ccc3c(c2)OCO3)c1`, for which the kinetic solubility was above 40.7 µg/mL.

For `O=C(COC(=O)CC1CC2CCC1C2)Nc1ccccc1[N+](=O)[O-]` (configuration not stated), the solubility (kinetic) stood at 2.9 µg/mL (≈ 8.73 µM).

Regarding `O=C(Nc1cccnc1Cl)c1cccs1`, the solubility (kinetic) was above 35.8 µg/mL.

`CC(c1ccccc1)N1CC(C(=O)Nc2nccs2)CC1=O` (configuration not stated) showed a solubility (kinetic) above 47.3 µg/mL.

As for `CC(=O)C1=C(O)C(=O)N(c2ccccn2)C1c1ccccc1[N+](=O)[O-]` (configuration not stated), the kinetic solubility is above 50.9 µg/mL.

The molecule `C[C@H](NC(=O)c1ccc(C(C)(C)C)cc1)C(=O)N1CCOCC1` had a kinetic solubility above 47.8 µg/mL.

Take `CCCOc1nc(C)cc(COC)c1C(N)=O`: the solubility (kinetic) is above 35.7 µg/mL.

In turn, `COc1cc(C(=O)OCC(=O)N2CCCC2=O)cc(OC)c1C` had a solubility (kinetic) above 48.2 µg/mL.

In the case of `C=CCNC(=O)C1CCC(=O)N1S(=O)(=O)c1ccc(C)cc1` (configuration not stated), the solubility (kinetic) was above 48.4 µg/mL.

`CC(C)NCC(=O)C12CC3CC(CC(C3)C1)C2`: the solubility (kinetic) is 28.7 µg/mL (≈ 122 µM).

Turning to `NC1=NC(=O)/C(=C/c2ccccc2OCC(=O)Nc2ccc(F)cc2)S1`, the solubility (kinetic) was 3.8 µg/mL (≈ 10.2 µM).

`O=C(NC(=S)NC1CCC(O)CC1)c1ccco1` (configuration not stated) had a solubility (kinetic) above 40.2 µg/mL.

Regarding `COc1ccccc1CNC(=O)COC(=O)c1cc2ccccc2o1`, the kinetic solubility amounted to 3.8 µg/mL (≈ 11.2 µM).

Consider `Cc1ccc(SCC(=O)Nc2cccc(C)c2)cc1`, for which the solubility (kinetic) was determined as 0.8 µg/mL (≈ 2.95 µM).
